The conditions of series [1]: described by Lucchesi et al. 1968; undesirable side-effect of prior art compound; cited from earlier work.
The subject of series [2] is mongrel dogs. Description: Myocardial oxygen consumption, left coronary arteries perfused with arterial blood at constant pressure, anesthetized dogs. The class given is in vivo, dog. The settings on record: 10 mg./kg. intravenously prior to perfusion; 5 dogs; mean control 11.7 ± 1.9; statistically significant (p<0.05) reduction. As for the experimental part:
A group of 5 mongrel dogs is anesthetized and thoractomized by the procedure described in the preceding assay and the left anterior descending and circumflex coronary arteries are cannulated and perfused with arterial blood at a constant pressure. Coronary arterial and venous blood samples are collected and their oxygen content measured. Myocardial oxygen consumption is calculated and expressed as ml./min./100 g. of the left ventricle. the mean control oxygen consumption in these 5 animals is 11.7 ± 1.9.
In a second group of 5 animals, prepared as described above, the selected dose of the test compound is administered intravenously prior to perfusion. The myocardial oxygen consumption is calculated and compared with the corresponding value in the control group. A compound is rated active if it effects a statistically significant reduction in the myocardial oxygen consumption observed in the control group.

Series [3] has as its system excised hearts perfused by donor dog. Description: Oxygen consumption of excised hearts perfused with whole blood from a donor dog. The class given is in vivo. The settings on record: 10 mg./kg. intravenously to 5 donor dogs; value before treatment 3.1 ± 0.2; statistically significant (p<0.01) reduction. As to the method:
In a separate assay, hearts are excised from anesthetized animals and perfused via the aorta at a constant pressure with oxygenated whole blood supplied by a donor dog connected to the heart. Oxygen consumption is calculated and expressed as ml./min./100 g. of the myocardium. The donor dogs are then treated intravenously with the selected dose of the test compound and the mean oxygen consumption value again calculated. The test compound is rated active if it effects a statistically significant reduction in that value.

The subject of series [4] is mongrel dogs. As to the kind of experiment: Epicardial ST segment elevation (ΣST) after 10-minute coronary artery branch occlusion in anesthetized dogs. The class given is in vivo, dog. Particulars: 10 mg./kg. intravenously 15 minutes prior to the second 10-minute occlusion; control ΣST 34.8 ± 4.9 mV. As for the experimental part:
A group of 10 mongrel dogs, weighing 11-19 kg., is anesthetized by the intravenous administration of 30 mg./kg. of pentobarbital sodium and breathing maintained by means of a Harvard respirator. A thoractomy is performed through the fifth left intercostal space; the heart is suspended in a pericardial cradle; a branch of the left anterior descending coronary artery is dissected free and a suture placed under that vessel. Occlusion of that arterial branch is accomplished by passing the free ends of the suture through a short section of polyethylene tubing and pressing the tubing against the vessel while exerting traction on the free ends of the suture. Termination of the occlusion is achieved by releasing the suture and pulling the tube away from the vessel.
The degree of myocardial ischemic injury resulting from occlusion of the artery is determined by the epicardial electrocardiographic method described by Maroko et al., Circulation, 43, 67-82 (1971). […] All surface collateral vessels are ligated and the unipolar electrograms from the six epicardial leads and the Lead II electrocardiogram are recorded on a Grass model 7 polygraph. […]
The reproducibility of the method with respect to the magnitude of ΣST is determined by successive 10-minute occlusions in a group of five dogs. […]

This is an account of results in patent publication US4001327A, “Novel quaternary salts and method” (The Regents of the University of Michigan, priority 1973, dated 1977).

As for `CC[N+](C)(CC)CC(O)COc1cccc2ccccc12` (stereo not shown) [1-(N,N-diethylamino)-3-(1-naphthoxy)propan-2-ol methiodide], the local anesthetic activity entry in series [1] is recorded as “local anesthetic activity”.
On to `CC(C)[N+](C)(C)CC(O)COc1cccc2ccccc12` (stereo not shown) [1-(N-isopropyl-N-methylamino)-3-(1-naphthoxy)propan-2-ol methochloride], for which the myocardial oxygen consumption in series [2] was 7.6 ± 1.1 ml./min./100 g. of the left ve. For the same molecule, the “mean oxygen consumption value” in series [3] is listed as 2.1 ± 0.1 ml./min./100 g. of the myocard. Further, the “sum of the ST segment elevation in the six epicardial leads (ΣST)” value in series [4] amounted to 11.3 ± 2.1 mV.
